Measurements from patent publication US20240254119A1 (THIRD HARMONIC BIO, INC., priority 2022, published 2024).
pIC50: −log10 of the molar value.

Biological target: T1, wtKIT (Homo sapiens, UniProt P10721)
T1 construct: 1888289AM in the reaction mixtures
Assay: HTRF biochemical assay, wtKIT (phosphorylation of a peptide substrate)
Conditions: Table 4
Procedure, shortened: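 wtKIT (5.0 nM) phosphorylating 1 µM FAM-labelled peptide with 400 µM ATP and 10 mM MnCl2 in 100 mM HEPES pH 7.5, 1% DMSO, 3 h at 25 °C. EDTA quench; phosphopeptide detected with anti-phosphotyrosine antibody by HTRF. Enzyme titrated for 10-20% substrate conversion.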

T1 sequence (P10721 26-976): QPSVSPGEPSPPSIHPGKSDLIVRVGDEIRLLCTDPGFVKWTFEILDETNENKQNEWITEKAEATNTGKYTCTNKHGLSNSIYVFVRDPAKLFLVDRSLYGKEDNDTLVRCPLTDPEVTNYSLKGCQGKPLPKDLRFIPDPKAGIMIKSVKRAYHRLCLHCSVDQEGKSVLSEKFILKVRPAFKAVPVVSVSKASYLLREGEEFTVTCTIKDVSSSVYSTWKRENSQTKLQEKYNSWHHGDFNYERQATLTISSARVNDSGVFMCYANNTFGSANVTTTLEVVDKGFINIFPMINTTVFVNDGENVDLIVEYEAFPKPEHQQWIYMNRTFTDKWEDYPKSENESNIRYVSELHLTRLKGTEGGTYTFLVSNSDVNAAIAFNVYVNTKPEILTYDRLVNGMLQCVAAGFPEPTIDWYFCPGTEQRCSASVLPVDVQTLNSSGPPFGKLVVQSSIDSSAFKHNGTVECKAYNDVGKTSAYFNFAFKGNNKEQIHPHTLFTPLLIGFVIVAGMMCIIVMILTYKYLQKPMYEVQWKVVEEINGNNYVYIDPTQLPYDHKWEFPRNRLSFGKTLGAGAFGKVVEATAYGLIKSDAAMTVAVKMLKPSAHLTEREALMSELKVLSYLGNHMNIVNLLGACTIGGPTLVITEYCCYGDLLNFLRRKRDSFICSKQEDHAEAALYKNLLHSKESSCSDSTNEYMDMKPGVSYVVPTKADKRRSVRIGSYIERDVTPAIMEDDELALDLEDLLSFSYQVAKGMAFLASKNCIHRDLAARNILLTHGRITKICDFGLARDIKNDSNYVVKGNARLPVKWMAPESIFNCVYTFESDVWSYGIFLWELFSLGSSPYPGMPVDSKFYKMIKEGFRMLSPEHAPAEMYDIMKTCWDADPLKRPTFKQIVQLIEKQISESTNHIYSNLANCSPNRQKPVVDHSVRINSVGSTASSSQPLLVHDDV

SMILES	pIC50
Cc1cc(C)c(-c2noc(C3CC3(F)F)n2)cc1NC(=O)c1cnc2ccccn12 (racemic) [Compound I-129]	≥ 7.30
COc1ccc2ncc(C(=O)Nc3cc(-c4noc(C[C@H](C)O)n4)ccc3C)n2c1 [Compound I-89]	≥ 7.30
COCc1ccn2c(C(=O)Nc3cc(-c4noc(C)n4)ccc3C)cnc2c1 [Compound I-132]	≥ 7.30
COCCS(=O)(=O)N1CC[C@H]1c1nc(-c2ccc(C)c(NC(=O)c3cnc4ccccn34)c2)no1 [Compound I-189]	≥ 7.30
Cc1ccc(-c2noc([C@@H]3CC4(CC4)CN3)n2)cc1NC(=O)c1cnc2ccccn12 [Compound I-230]	≥ 7.30
Cc1ccc(-c2noc([C@H]3CC(F)(F)CN3)n2)cc1NC(=O)c1cnn2ccccc12 [Compound I-243]	≥ 7.30
COC(=O)N1CC(c2nc(-c3ccc(C)c(NC(=O)c4cnc5cc(OCC(C)(C)O)ccn45)c3)no2)C1 [Compound I-261]	≥ 7.30

Biological target: T2, CSF-1R (Homo sapiens, UniProt P07333)
T2 construct: purchased Invitrogen PV3249 (lot 662393N)
T2 sequence (P07333 20-972): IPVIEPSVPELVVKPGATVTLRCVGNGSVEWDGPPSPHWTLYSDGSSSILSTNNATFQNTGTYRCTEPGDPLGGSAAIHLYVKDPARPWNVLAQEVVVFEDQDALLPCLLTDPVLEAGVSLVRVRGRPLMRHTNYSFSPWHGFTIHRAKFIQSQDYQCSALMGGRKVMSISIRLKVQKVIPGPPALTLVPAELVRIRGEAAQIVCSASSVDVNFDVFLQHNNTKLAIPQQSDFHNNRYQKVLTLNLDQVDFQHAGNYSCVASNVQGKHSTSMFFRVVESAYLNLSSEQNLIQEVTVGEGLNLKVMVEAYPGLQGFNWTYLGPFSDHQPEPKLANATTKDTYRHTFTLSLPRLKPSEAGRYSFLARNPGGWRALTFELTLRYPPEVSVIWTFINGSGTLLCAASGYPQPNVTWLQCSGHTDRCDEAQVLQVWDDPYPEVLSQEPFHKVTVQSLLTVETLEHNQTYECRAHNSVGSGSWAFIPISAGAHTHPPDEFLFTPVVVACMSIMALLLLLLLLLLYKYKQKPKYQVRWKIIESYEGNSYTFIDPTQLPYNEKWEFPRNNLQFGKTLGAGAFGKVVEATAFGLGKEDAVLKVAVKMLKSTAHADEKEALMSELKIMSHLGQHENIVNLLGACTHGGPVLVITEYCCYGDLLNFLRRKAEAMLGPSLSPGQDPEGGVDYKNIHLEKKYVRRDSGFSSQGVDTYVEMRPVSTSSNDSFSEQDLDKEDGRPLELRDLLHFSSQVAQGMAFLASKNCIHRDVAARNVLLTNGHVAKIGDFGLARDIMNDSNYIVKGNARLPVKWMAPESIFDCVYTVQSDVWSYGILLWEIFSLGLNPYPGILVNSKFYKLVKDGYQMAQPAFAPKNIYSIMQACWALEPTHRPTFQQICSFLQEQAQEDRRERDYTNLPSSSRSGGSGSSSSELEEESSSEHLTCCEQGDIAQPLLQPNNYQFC
Assay: HTRF biochemical assay, CSF-1R
Conditions: Table 4
Description: (§1) Exemplary compounds were tested for ability to inhibit the phosphorylation of a peptide substrate by the tyrosine kinase wt KIT, PDGFRα, or CSF-1R. Assay procedures and results are described below.
(§2) Enzyme, substrate, and cofactors (ATP and Mn^2+) are combined in a well of a microtiter plate and incubated for 3 hours at 25° C. At the end of the incubation, the reaction is quenched by the addition of an EDTA-containing buffer.
(§3) The substrate used in the CSF-1R and PDGFRα assay is FAM-[…]-CONH2 (FAM is carboxyfluorescein). Peptide should be >95% purity. The substrate for the KIT assay is FAM-[…]-NH2.
(§4) • 1. To a well of a 384-wellplate add 5 μL of 2× enzyme buffer (or control). • 2. Add 100 nL of 100× compound. Enzyme and compound may be pre-incubated at this time if desired. • 3. Add 5 μL of 2× substrate buffer. • 4. Incubate plate at 25° C. for 3 hours. • 5. Add 10 uL of anti-phosphotyrosine antibody buffer. • 6. Read plate in BioTek Synergy Reader. Reaction Conditions for wtKIT Assay

SMILES	pIC50
Cc1cc(C)c(-c2noc(C3CC3(F)F)n2)cc1NC(=O)c1cnc2ccccn12 (racemic) [Compound I-129]	≥ 7.30
COc1ccc2ncc(C(=O)Nc3cc(-c4noc(C[C@H](C)O)n4)ccc3C)n2c1 [Compound I-89]	6.30 to 7.30
COCc1ccn2c(C(=O)Nc3cc(-c4noc(C)n4)ccc3C)cnc2c1 [Compound I-132]	4.52 to 5.30
COCCS(=O)(=O)N1CC[C@H]1c1nc(-c2ccc(C)c(NC(=O)c3cnc4ccccn34)c2)no1 [Compound I-189]	5.30 to 6.30
Cc1ccc(-c2noc([C@H]3CC(F)(F)CN3)n2)cc1NC(=O)c1cnn2ccccc12 [Compound I-243]	6.30 to 7.30

Biological target: T3, PDGFRα (Homo sapiens, UniProt P16234)
T3 construct: purchased Millipore 14-467 (lot 26321_ACTI)
T3 sequence (P16234 24-1089): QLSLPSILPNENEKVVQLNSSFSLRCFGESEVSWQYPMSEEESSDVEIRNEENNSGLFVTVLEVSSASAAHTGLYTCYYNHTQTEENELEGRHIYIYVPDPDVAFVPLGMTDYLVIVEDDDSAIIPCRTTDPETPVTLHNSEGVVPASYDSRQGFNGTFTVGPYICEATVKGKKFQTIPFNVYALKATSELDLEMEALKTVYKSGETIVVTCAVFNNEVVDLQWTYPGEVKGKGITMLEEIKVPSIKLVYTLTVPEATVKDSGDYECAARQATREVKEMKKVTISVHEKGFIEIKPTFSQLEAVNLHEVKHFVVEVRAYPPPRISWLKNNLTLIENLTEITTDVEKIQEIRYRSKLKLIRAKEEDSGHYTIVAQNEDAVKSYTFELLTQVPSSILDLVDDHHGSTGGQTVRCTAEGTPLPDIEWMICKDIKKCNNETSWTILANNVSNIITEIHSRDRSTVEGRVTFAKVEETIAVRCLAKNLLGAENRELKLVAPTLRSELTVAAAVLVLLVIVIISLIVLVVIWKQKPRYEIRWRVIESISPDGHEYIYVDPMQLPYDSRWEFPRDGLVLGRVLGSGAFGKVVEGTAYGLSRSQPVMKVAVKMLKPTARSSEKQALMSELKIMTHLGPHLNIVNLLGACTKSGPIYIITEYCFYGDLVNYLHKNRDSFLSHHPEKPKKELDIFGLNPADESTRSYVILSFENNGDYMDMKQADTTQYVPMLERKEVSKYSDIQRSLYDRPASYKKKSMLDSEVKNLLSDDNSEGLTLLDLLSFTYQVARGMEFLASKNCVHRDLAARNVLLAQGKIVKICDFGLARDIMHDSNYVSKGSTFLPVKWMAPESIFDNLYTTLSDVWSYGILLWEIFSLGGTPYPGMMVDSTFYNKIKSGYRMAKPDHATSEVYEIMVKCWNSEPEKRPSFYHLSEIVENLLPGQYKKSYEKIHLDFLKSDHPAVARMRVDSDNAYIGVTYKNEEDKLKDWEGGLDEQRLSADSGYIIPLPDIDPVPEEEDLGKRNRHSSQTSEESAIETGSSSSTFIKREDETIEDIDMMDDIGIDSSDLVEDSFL
Assay: HTRF biochemical assay, PDGFRα
Conditions: Table 4, read-out: PDFGRα Biochemical IC50 avg
Description: as §1, §2, §3, §4

SMILES	pIC50
Cc1cc(C)c(-c2noc(C3CC3(F)F)n2)cc1NC(=O)c1cnc2ccccn12 (racemic) [Compound I-129]	5.30 to 6.30
COc1ccc2ncc(C(=O)Nc3cc(-c4noc(C[C@H](C)O)n4)ccc3C)n2c1 [Compound I-89]	5.30 to 6.30
COCc1ccn2c(C(=O)Nc3cc(-c4noc(C)n4)ccc3C)cnc2c1 [Compound I-132]	5.30 to 6.30
COCCS(=O)(=O)N1CC[C@H]1c1nc(-c2ccc(C)c(NC(=O)c3cnc4ccccn34)c2)no1 [Compound I-189]	5.30 to 6.30
Cc1ccc(-c2noc([C@H]3CC(F)(F)CN3)n2)cc1NC(=O)c1cnn2ccccc12 [Compound I-243]	6.30 to 7.30

Biological target: T1, wtKIT
Assay: Caliper biochemical assay, wtKIT
Conditions: Table 6, read-out: KIT Biochemical IC50 avg
Procedure, shortened: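 Enzyme (5.0 nM wtKIT), 1 μM FAM-labelled peptide, 400 μM ATP and 10 mM MnCl2 in HEPES pH 7.5 with 1% DMSO, incubated 3 h at 25° C. EDTA quench; substrate and phosphoproduct separated by microfluidic electrophoresis and quantified by fluorescence.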

SMILES	pIC50
Cc1cc(C)c(-c2noc(C3CC3(F)F)n2)cc1NC(=O)c1cnc2ccccn12 (racemic) [Compound I-129]	≥ 7.30
COCc1ccn2c(C(=O)Nc3cc(-c4noc(C)n4)ccc3C)cnc2c1 [Compound I-132]	≥ 7.30
COCCS(=O)(=O)N1CC[C@H]1c1nc(-c2ccc(C)c(NC(=O)c3cnc4ccccn34)c2)no1 [Compound I-189]	6.30 to 7.30
Cc1ccc(-c2noc([C@@H]3CC4(CC4)CN3)n2)cc1NC(=O)c1cnc2ccccn12 [Compound I-230]	≥ 7.30
Cc1ccc(-c2noc([C@H]3CC(F)(F)CN3)n2)cc1NC(=O)c1cnn2ccccc12 [Compound I-243]	≥ 7.30
COC(=O)N1CC(c2nc(-c3ccc(C)c(NC(=O)c4cnc5cc(OCC(C)(C)O)ccn45)c3)no2)C1 [Compound I-261]	≥ 7.30

Biological target: T2, CSF-1R
Assay: Caliper biochemical assay, CSF-1R
Conditions: Table 6
Procedure, shortened: (§5)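 Kinase, FAM-labelled peptide substrate, ATP and Mn^2+ incubated with compound for 3 h at 25° C, then quenched with EDTA buffer. Substrate and phosphorylated product separated by microfluidic electrophoresis and quantified by fluorescence intensity; no-enzyme wells define 100% inhibition.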

SMILES	pIC50
Cc1cc(C)c(-c2noc(C3CC3(F)F)n2)cc1NC(=O)c1cnc2ccccn12 (racemic) [Compound I-129]	≥ 7.30
COCc1ccn2c(C(=O)Nc3cc(-c4noc(C)n4)ccc3C)cnc2c1 [Compound I-132]	5.30 to 6.30
COCCS(=O)(=O)N1CC[C@H]1c1nc(-c2ccc(C)c(NC(=O)c3cnc4ccccn34)c2)no1 [Compound I-189]	6.30 to 7.30
Cc1ccc(-c2noc([C@@H]3CC4(CC4)CN3)n2)cc1NC(=O)c1cnc2ccccn12 [Compound I-230]	≥ 7.30
Cc1ccc(-c2noc([C@H]3CC(F)(F)CN3)n2)cc1NC(=O)c1cnn2ccccc12 [Compound I-243]	6.30 to 7.30
COC(=O)N1CC(c2nc(-c3ccc(C)c(NC(=O)c4cnc5cc(OCC(C)(C)O)ccn45)c3)no2)C1 [Compound I-261]	≥ 7.30

Biological target: T3, PDGFRα
Assay: Caliper biochemical assay, PDGFRα
Conditions: Table 6
Procedure, shortened: as §5

SMILES	pIC50
Cc1cc(C)c(-c2noc(C3CC3(F)F)n2)cc1NC(=O)c1cnc2ccccn12 (racemic) [Compound I-129]	5.30 to 6.30
COCc1ccn2c(C(=O)Nc3cc(-c4noc(C)n4)ccc3C)cnc2c1 [Compound I-132]	5.30 to 6.30
COCCS(=O)(=O)N1CC[C@H]1c1nc(-c2ccc(C)c(NC(=O)c3cnc4ccccn34)c2)no1 [Compound I-189]	5.30 to 6.30
Cc1ccc(-c2noc([C@@H]3CC4(CC4)CN3)n2)cc1NC(=O)c1cnc2ccccn12 [Compound I-230]	6.30 to 7.30
Cc1ccc(-c2noc([C@H]3CC(F)(F)CN3)n2)cc1NC(=O)c1cnn2ccccc12 [Compound I-243]	6.30 to 7.30
COC(=O)N1CC(c2nc(-c3ccc(C)c(NC(=O)c4cnc5cc(OCC(C)(C)O)ccn45)c3)no2)C1 [Compound I-261]	6.30 to 7.30

System: KIT phosphorylation in M-07e cells
Assay: Cell-based KIT phosphorylation in M-07e cells by pKIT ELISA
Set-up: species or system human
Conditions: SCF stimulation
Description: Exemplary compounds were tested for ability to inhibit KIT phosphorylation using M-07e cells as monitored by pKIT ELISA. M-07e cells are also represented as M-07E, M-07e, M07-e, M07e, Mo7e, MO7e, M07E and MO7E. Assay procedures and results are described below.
Part I—Procedures for Determining KIT Inhibition inM-07e Cells Using pKTT ELISA Reagents and consumables: • M-07e cells: Initially obtained from Accegen, cat #ABC-TC1313 • p-cKIT Capture ELISA antibody: anti-Human Phospho-CD117/c-kit, R&D cat #DYC3527-5 • Anti-pY-HIRP antibody: R&D cat #DYC3527-5 • 25× wash buffer: Quantikine ELISA Wash Buffer 1, R&D cat #WA126 • PBS: R&D cat #DY006 • 96 well ELISA plates: Clear Polystyrene Microplates, R&D Cat #DY990 • 96 well Tissue culture plates: Corning® 96 Well TC-Treated Microplates, cat #CLS3894 • RPMI medium: ATCC® RPMI-1640 Medium, Cat #30-2001 • FBS: Fetal Bovine Serum, certified, United States Gibco, Thermo-Fisher 16000044 • GM-CSF: Recombinant Human GM-CSF Protein, R&D cat #215-GM • SCF: Recombinant Human SCF Protein, R&D cat #255-SC
• 1. Prepare cells: • a. Culture M-07e cells in RPMI medium+20% serum+GM-CSF+penstrep • To make 50 mL of growth medium • i. 40 mL RPMI media • ii. 10 mL FBS • iii. 10 uL of GM-CSF (100 ug/mL stock) • iv. 0.5 mL pen strep (100×) • b. Harvest cells • c. Re-suspend cells in 100% RPMI media (without serum) to final concentration of 1 million cells/mL • d. Transfer 100 uL of cell solution to 11 columns of a 96 well flat bottom cell culture plate • e. Incubate cells over night at 37 C • 2. Prepare ELISA Plates: • a. Dilute capture antibody to concentration 4 ug/mL in PBS • b. Coat 96 well microplates with 100 uL of capture antibody • c. Seal plates and incubate at RT overnight • d. Wash plates with 300 uL of wash buffer • e. Repeat wash • f. Treat plates with 300 uL of blocking buffer at RT for 1 hour • 3. Addition of compounds: • a. Prepare compound dilutions in RPMI media • i. Top test concentration is 1 uM • ii. Serially dilute compounds 3× for a total of 8 concentrations • b. Add 10 uL of 10× compound dilutions to cells • i. No compounds added in column 11 (for controls) • c. Incubate cells with compounds for 2 hours at 37 C • d. Stimulate cells with SCF for 5 min at concentration of 100 ng/mL (final) • i. In column 11 stimulate top 4 wells. Leave bottom 4 wells unstimulated • e. Remove cell culture media with multichannel pipet • f. Add 110 uL of Lysis buffer to all wells • g. Incubate plates at RT for 30 min while shaking • 4. Transfer 100 uL of cell lysis to each prepared Elisa plate • 5. Add 100 uL of the standard pc-KIT dilutions to the standard wells in column 12 • a. Top concentration=2000 pg/mL • b. 2× dilutions • 6. Incubate ELISA plate with cell lysate for 2 hours at RT • 7. Wash Plate with wash buffer (wash 1) • 8. Repeat wash (wash 2) • 9. […] Add 100 uL of diluted anti-pY-HRP (1/1000 dilution in detection antibody dilution buffer) and incubate 2 hours at RT • 11. Wash plate with wash buffer (wash 1) • 12. Repeat wash (wash 2) • 13. Repeat wash (wash 3) • 14. Add 100 uL of substrate solution to each well • 15. Incubate plates 20 min • Note: Plate development is indicated by aqua color • 16. Add 50 uL of stop solution to each well • 17. Determine optical density on Bitek Synergy Neo2: • a. Make new experiment
Select absorbance 1 set to 450 nm

SMILES	pIC50
COc1ccc2ncc(C(=O)Nc3cc(-c4noc(C[C@H](C)O)n4)ccc3C)n2c1 [Compound I-89]	≥ 7.30
Cc1ccc(-c2noc([C@@H]3CC4(CC4)CN3)n2)cc1NC(=O)c1cnc2ccccn12 [Compound I-230]	≥ 7.30
COC(=O)N1CC(c2nc(-c3ccc(C)c(NC(=O)c4cnc5cc(OCC(C)(C)O)ccn45)c3)no2)C1 [Compound I-261]	≥ 7.30

System: not listed separately
Assay: Kinetic solubility assay
Type: physicochemical
Conditions: kinetic solubility, 50 mM PB (pH 7.4), shaken 24 hours at RT
Procedure, shortened: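 Test compounds from 10 mM DMSO stock were diluted in 50 mM phosphate buffer, pH 7.4, and shaken for 24 h at RT. After PTFE filtration and centrifugation, filtrate concentration was quantified by UPLC-UV/HPLC-UV against a standard curve.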

SMILES	Solubility (μM)
Cc1cc(C)c(-c2noc(C3CC3(F)F)n2)cc1NC(=O)c1cnc2ccccn12 (racemic) [Compound I-129]	**** (a solubility less than or equal to 2 μM)
COCc1ccn2c(C(=O)Nc3cc(-c4noc(C)n4)ccc3C)cnc2c1 [Compound I-132]	**** (a solubility less than or equal to 2 μM)
COCCS(=O)(=O)N1CC[C@H]1c1nc(-c2ccc(C)c(NC(=O)c3cnc4ccccn34)c2)no1 [Compound I-189]	** (a solubility greater than 10 μM and less than or equal to 50 μM)
Cc1ccc(-c2noc([C@@H]3CC4(CC4)CN3)n2)cc1NC(=O)c1cnc2ccccn12 [Compound I-230]	** (a solubility greater than 10 μM and less than or equal to 50 μM)
Cc1ccc(-c2noc([C@H]3CC(F)(F)CN3)n2)cc1NC(=O)c1cnn2ccccc12 [Compound I-243]	* (a solubility greater than 50 μM)
COC(=O)N1CC(c2nc(-c3ccc(C)c(NC(=O)c4cnc5cc(OCC(C)(C)O)ccn45)c3)no2)C1 [Compound I-261]	** (a solubility greater than 10 μM and less than or equal to 50 μM)
